Reference: ChEMBL document CHEMBL4219188, “Design, synthesis, neuroprotective, antibacterial activities and docking studies of novel thieno[2,3-d]pyrimidine-alkyne Mannich base and oxadiazole hybrids” (Bioorg Med Chem Lett, 2018)
≈ marks a conversion by molar mass, not a printed value.

What was measured:
PC-12 [1] = experiment: Neuroprotective activity against H2O2-induced cytotoxicity in rat PC12 cells assessed as increase in cell viability pretreated for 24 hrs followed by H2O2 addition by MTT assay; type: functional, cell-based
Pseudomonas aeruginosa [2] = experiment: Antibacterial activity against Pseudomonas aeruginosa after 24 hrs by UV-vis spectrophotometric method; type: functional
[3] = Cytotoxicity against rat PC12 cells assessed as cell viability at CC50 after 24 hrs by MTT assay relative to control; type: cell-based, PC-12; conditions: read-out: Activity
[4] = Cytotoxicity against rat PC12 cells assessed as cell viability at MNTC after 24 hrs by MTT assay relative to control; type: cell-based, PC-12; conditions: read-out: Activity
Pseudomonas aeruginosa [5] = experiment: Antibacterial activity against Pseudomonas aeruginosa assessed as diameter of inhibition zone measured after 24 hrs by agar well diffusion method; type: functional
Staphylococcus aureus [6] = experiment: Antibacterial activity against Staphylococcus aureus assessed as diameter of inhibition zone measured after 24 hrs by agar well diffusion method; type: functional
Escherichia coli [7] = experiment: Antibacterial activity against Escherichia coli after 24 hrs by UV-vis spectrophotometric method; type: functional
[8] = Cytotoxicity against rat PC12 cells after 24 hrs by MTT assay; type: cell-based, PC-12; conditions: for MNTC at 24 h: read-out: MNCC
Escherichia coli [9] = experiment: Antibacterial activity against Escherichia coli assessed as diameter of inhibition zone measured after 24 hrs by agar well diffusion method; type: functional
Bacillus subtilis [10] = experiment: Antibacterial activity against Bacillus subtilis assessed as diameter of inhibition zone measured after 24 hrs by agar well diffusion method; type: functional
Bacillus subtilis [11] = experiment: Antibacterial activity against Bacillus subtilis after 24 hrs by UV-vis spectrophotometric method; type: functional
Staphylococcus aureus [12] = experiment: Antibacterial activity against Staphylococcus aureus after 24 hrs by UV-vis spectrophotometric method; type: functional
PC-12 [13] = experiment: Neuroprotective activity against H2O2-induced cytotoxicity in rat PC12 cells assessed as cell viability at EC50 pretreated for 24 hrs followed by H2O2 addition by MTT assay relative to control; type: functional

Row | MIC (Pseudomonas aeruginosa [2]) [µg/mL] | MIC (Escherichia coli [7]) [µg/mL] | MIC (Bacillus subtilis [11]) [µg/mL] | MIC (Staphylococcus aureus [12]) [µg/mL] | SMILES | Activity (PC-12 [1]) | EC50 (PC-12 [1]) [µg/mL] | viability at 24 h [3] [%] | viability at 24 h [4] [%] | diameter of the inhibition zone (DIZ) (Pseudomonas aeruginosa [5]) [mm] | diameter of the inhibition zone (DIZ) (Staphylococcus aureus [6]) [mm] | CC50 at 24 h [8] [µg/mL] | MNTC at 24 h [8] [µg/mL] | diameter of the inhibition zone (DIZ) (Escherichia coli [9]) [mm] | diameter of the inhibition zone (DIZ) (Bacillus subtilis [10]) [mm] | Activity (PC-12 [13]) [%]
1 | 0.0442 (≈ 0.112 µM) | 0.0132 (≈ 0.0335 µM) | 0.0464 (≈ 0.118 µM) | 0.0546 (≈ 0.139 µM) | Cc1ccc(-c2nnc(-c3sc4ncnc(N5CCOCC5)c4c3C)o2)cc1 | Dose-dependent effect | 26.6 (≈ 67.6 µM) | 49.2 | 97.6 | 14 | 18 | 86.1 (≈ 219 µM) | 68 | 18 | 15 | 74.2
2 | 0.0128 (≈ 0.0215 µM) | 0.0324 (≈ 0.0544 µM) | 0.0628 (≈ 0.105 µM) | 0.526 (≈ 0.883 µM) | Cc1c(C(=O)OCC#CCN2CCN(c3ccc(Br)cc3C#N)CC2)sc2ncnc(N3CCOCC3)c12 | Dose-dependent effect | 32.3 (≈ 54.2 µM) | 49 | 99.6 | 12 | 10 | 122 (≈ 205 µM) | 100 | 13 | 12 | 75.44
3 | 0.0266 (≈ 0.0627 µM) | 0.0382 (≈ 0.09 µM) | 0.0381 (≈ 0.0898 µM) | 0.046 (≈ 0.108 µM) | Cc1c(-c2nnc(-c3ccc([N+](=O)[O-])cc3)o2)sc2ncnc(N3CCOCC3)c12 | Dose-dependent effect | 16.2 (≈ 38.1 µM) | 49.2 | 99.2 | 16 | 16 | 94.2 (≈ 222 µM) | 80 | 16 | 13 | 75.11
4 | 0.0201 (≈ 0.0513 µM) | 0.0138 (≈ 0.0352 µM) | 0.0142 (≈ 0.0363 µM) | 0.0404 (≈ 0.103 µM) | Cc1ccc(-c2nnc(-c3sc4ncnc(N5CCCCC5)c4c3C)o2)cc1 | Dose-dependent effect | 28.2 (≈ 72 µM) | 49.2 | 99.5 | 12 | 14 | 161 (≈ 411 µM) | 110 | 11 | 17 | 74.98
